According to article PMC9256669, “Monomethyl auristatin antibody and peptide drug conjugates for trimodal cancer chemo-radio-immunotherapy” (Nature Communications, 2022):

Tests used:
[1] = system: MOC1 tumors; assay: Subcutaneous tumor therapy, ADC monotherapy, mouse survival; assay type: in vivo, C57BL/6 mice
Protocol: (§2) MOC1, B16, LL/2, and MC38 tumor cells were injected subcutaneously into the hindlimbs of 6-week-old female C57BL/6 albino mice in 100 µl of 1:1 Matrigel (BD) and PBS solution. Fractionated IR was delivered focally to the tumor-bearing hindlimbs (3 Gy to MC38 tumors and 5 Gy to LL/2 and B16 tumors) as indicated in figure legends using a PXI X-RAD 225 XL irradiator at maximal dose rate of 3 Gy/min with a beam-conditioning aluminum filter (Precision X-ray Irradiation). For RAG1 KO studies, 6-week-old female Rag1^tm1Mom mice were injected subcutaneously with tumor cells in their hindlimbs (Jackson Labs). For CD8 depletion studies, mice were i.p. injected with anti-CD8 (BioXCell #BE0117) at 10 mg/kg on days −6, −5 and −4 tumor cell implant and then weekly starting on day after tumor cells were injected or control antibody. […] Tumor volumes were measured and calculated using the formula as ½ * length * width^2. Mice were sacrificed when tumor volume reached >1500 mm^3, maximal tumor volume approved on our protocol for subcutaneous tumors.

[2] = system: B16 tumors; assay: as above; assay type: in vivo, C57BL/6 mice
Protocol: as §2

[3] = system: B16 cells; assay: Cell surface binding of Cy5-labeled ADCs by flow cytometry; assay type: cell-based, murine
Protocol: Murine cancer cells incubated on ice with Cy5 labeled ADC, bound Cy5 signal measured
by flow cytometry. Mean fluorescent intensity measured and subtracted from baseline fluorescence of saline incubated cells for each cell line. Data representative of 3

[4] = system: 4MOSC1 tumors; assay: Orthotopic syngeneic tumor ACPP therapy, tumor volumes; assay type: in vivo, C57BL/6 mice; details: orthotopic 4MOSC1 tumors, conjugate monotherapy
From the text: (§1) Orthotopic tongue xenograft tumors were established in 6-week-old NOD SCID mice by injecting 150,000 CAL27 parental (WT) or PIK3CA H1047R-expressing cells. […] On the last day of tumor xenograft measurements, mice were euthanized, tongues resected, imaged, and fixed. […] IR was delivered as 2 parallel opposed fields.

[5] = system: B16 tumors; assay: NanoString nCounter PanCancer Mouse Immune Profiling of tumors; assay type: in vivo, C57BL/6 mice; details: ACPP-MMAE alone vs vehicle
Protocol: RNA was isolated from cells or tumor tissues and comprehensive immune profiling was analyzed using the NanoString PanCancer IO 360 Panel and NanoString nCounter PanCancer Mouse Immune Profiling gene expression platforms. Gene set analysis with calculated global significance scores and directed significance scores were calculated for treated cells. The Advanced Analysis module of the nSolver software was used to analyze genes associated with listed immune cells in tumors and given a Z-score (n = 3 mice per group). Expression levels of GZMB were analyzed using real-time quantitative PCR. Reverse transcription was performed with the iScript cDNA synthesis kit (Biorad), using aliquots of total RNA extracted with RNeasy Plus Mini Kit (Qiagen). Gene-specific primers were GZMB-F […] and GZMB-R […]. Real-time PCR reactions were performed using the CFX Connect Real-Time PCR System (Biorad) and the amplifications were done using the iTaq Universal SYBR Green Supermix (Biorad). qPCR data were analyzed using the Bio-Rad CFX Maestro software.
Supplementary Data 1: Complete NanoString expression data of Figure 1b. Untreated control (n=2) and 5 nM MMAE treated (n=3) B16 cells were harvested at 72 hrs. RNA was collected and analyzed using NanoString PanCancer IO 360 Panel. […]
were harvested. RNA was collected and analyzed using NanoString nCounter PanCancer Mouse Immune Profiling panel. […]

[6] = system: B16 tumors; design: species or system RAG1 KO mice; details: mouse, in vivo
Protocol: FSC-A FSC-H SCC-H Live Dead-Blue
Representative flow cytometry plots to gate immune cells quantitated in Fig. 4a, b, 4d &
Supplementary Fig. 10b, c. b) Quantification of tumor immune cell identified by flow cytometry on
Tumors harvested on day 19 and immune cells characterized by flow cytometry. c) Tumor
granzyme B expression. Characterized CD8+ T-cells were further gated for granzyme-B staining
(Clone:GB11). In addition, RNA levelsof tumor granzyme-B was analyzed by qPCR. For
Mice implanted with tumor
Log-rank (Mantel-Cox) test.
Source data are provided in Source Data file. […]

[7] = system: orthotopic oral 4MOSC1 tumors; assay: Trimodal therapy: ACPP-MMAE, IR and anti-PD-1 antibody; assay type: in vivo, C57BL/6 mice; details: Figure 5c; individual mice, one line per mouse
From the text: as §1

[8] = Mouse body weight (safety of MMAE with IR, with or without anti-PD-1); details: ACPP-MMAE and IR
From the text: LL/2 cells treated with dose range of MMAE overnight and then […] in drug free media for 7-10 days to allow for visualized colonies to form.
Statistical significances calculated using one-way ANOVA with Tukey’s multiple comparisons test. 0.9 b) Cell cycle analysis […]
of MMAE treated LL/2 cells, mean ± SD, n=2. […]
experiments. c) Clonogenic survival of LL/2 cells treated with MMAE and 2 Gy (SF2). Cell Days viability normalized to non-irradiated cells for each drug condition and plotted as mean fractional survival ± SEM, n=6. Statistical significances calculated using one-way ANOVA with Sidak’s multiple comparisons test. d) Tumor volumes (n=10) and mouse body weights (n=5) of mice from experiments in Fig. 3e. Tumor volumes plotted as mean volume of surviving mice ± SEM.
Mouse body weight were normalized to each mouse’s weight on day 0, i.e. tumor implantation.
Data plotted as mean fractional body weight ± SEM. e) Mouse body weights of mice (n=5) from experiments in Fig. 4h were normalized to each mouse’s weight on day of tumor implantation.
Data is plotted as individual normalized body weights. f) Mouse body weights of mice from experiments in Fig. 5e, f were normalized to each mouse’s weight on day of tumor implantation.
Source data are provided in Source Data file.

Substance | anti-tumor activity as measured by mouse survival [1] | anti-tumor activity as measured by mouse survival [2] | cell surface binding to B16 cells [3] | tumor growth [4] | tumor infiltration of immune cell types (NanoString) [5] | tumor control in RAG1 KO mice [6] | Mouse survival: status at the day given (Mouse dead = 1, Mouse alive = 0) [7] | adverse effects on mouse well-being by body weight [8]
CDX3379-MMAE: anti-HER3 antibody CDX3379 with 4 MMAE per antibody via MC-VC-PABC linker, labeled with Cy5 | modest anti-tumor activity | modest anti-tumor activity | dose response cell surface binding | – | – | – | – | –
cyclo(RGD)fc-MC-HN-peg8-e9-oPLGC(Me)AG-r9-c-(MC-VC-PABC-MMAE)-CONH2 [ACPP-MMAE] | – | – | – | modest tumor growth delay | minimal effects | did not appreciably increase tumor control in RAG1 KO mice compared to IR alone | 1 | no adverse effects
